According to US9844565B2, “Systems and methods for treatment of acne vulgaris and other conditions with a topical nitric oxide delivery system” (priority 2012, dated 2017):

Experiments:
[1] = test system: micro-capillary blood flow to skin; assay: Laser Doppler study with covered chamber in three human female subjects, 10,000 ppm NO (Example 5); assay type: in vivo; details: applied to the skin at 1/10% in alcohol
Description: While nitric oxide has many physiological effects, the purpose of these studies was to measure physiological effects that would be relatively easy to determine, and which would be noninvasive. […] Nitric oxide is capable of […] the capillary bed, and thus, laser Doppler was selected.
The formulation used in these studies contained nitric oxide dispersed in a lipid matrix. […] Nitric oxide is a very rapid acting molecule, and these studies used a system that employed laser Doppler with a covered chamber. The formulation was placed into the chamber and then attached to the skin by an adhesive layer on the covering. This provided a stable measuring device as determined by multiple normal evaluations of the capillary blood flow without treatment of nitric oxide.
A known positive control, methyl nicotinate, was applied to the skin at a concentration of 1/10% in alcohol. […] The vascular dynamics are such that when the blood vessels dilate physical parameters follow Bernoulli's law. […] The laser Doppler device accurately measured these parameters. […]
A Moor Instruments DRT4 Laser Doppler Blood Flow Monitor (Devon, England) was used in these studies. The laser Doppler technique measured blood flow in the microcapillaries of the skin that are close to the skin surface and the blood flow in underlying arterioles and venules that help to regulate skin temperature. […]

[2] = test system: capillary circulation of the skin; assay: Laser Doppler study in five human subjects, 10,000 ppm NO formulation vs controls (Example 7); assay type: in vivo; details: positive control formulation containing 0.1% methyl nicotinate
Description: This example illustrates delivery of nitric oxide formulations to five human subjects, using procedures and formulations similar to those discussed in Example 5. Each person served as their own control for the testing. A Moor Instruments Laser Doppler was used to determine circulation. […] The formulations used produce positive, almost immediate results when applied to the skin which, in these studies, was manifested by vasodilatation of the cutaneous vascular system.
For each subject, the following creams were applied: a negative control formulation (containing no NO), 0.010 gram of a 10,000 ppm NO formulation, 0.020 gram of a 10,000 ppm NO formulation, and a positive control formulation containing 0.1% methyl nicotinate. The formulations were prepared using procedures similar to those discussed in Example 1.

With `COC(=O)c1cccnc1` [methyl nicotinate] the “laser Doppler response of positive control” value [1] was “rapid response typical of the vasodilator” and the “vasodilatation (laser Doppler)” value [2] was “vasodilatation was observed”.
